# Assay results published in ChEMBL document CHEMBL5346968, “Exploring Structural Determinants of Bias among D4 Subtype-Selective Dopamine Receptor Agonists” (J Med Chem, 2023).
# Key:
# [1] = target: D(3) dopamine receptor (Homo sapiens, UniProt P35462); test: Displacement of [3H]-N-methylspiperone from human dopmaine D3 receptor expressed in HEK293T cells assessed as inhibition constant by competition binding assay; assay type: cell-based
# [2] = target: T1, D(4) dopamine receptor (Homo sapiens, UniProt P21917); test: Displacement of [3H]-N-methylspiperone from human dopmaine D4.4 receptor expressed in HEK293T cells assessed as inhibition constant by competition binding assay; assay type: cell-based
# T1 sequence (P21917 whole entry): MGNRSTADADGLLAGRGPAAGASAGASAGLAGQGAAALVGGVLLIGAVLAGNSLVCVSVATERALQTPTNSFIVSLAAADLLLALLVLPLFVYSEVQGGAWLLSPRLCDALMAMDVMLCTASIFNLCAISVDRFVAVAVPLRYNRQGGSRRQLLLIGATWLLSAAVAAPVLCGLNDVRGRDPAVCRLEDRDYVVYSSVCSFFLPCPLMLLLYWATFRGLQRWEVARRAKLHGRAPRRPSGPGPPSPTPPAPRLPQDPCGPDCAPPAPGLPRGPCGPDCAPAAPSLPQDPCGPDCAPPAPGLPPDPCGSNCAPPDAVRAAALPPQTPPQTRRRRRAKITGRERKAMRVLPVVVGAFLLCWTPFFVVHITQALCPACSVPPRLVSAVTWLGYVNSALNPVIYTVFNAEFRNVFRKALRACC
# [3] = target: T2, D(2) dopamine receptor (Homo sapiens, UniProt P14416); test: Displacement of [3H]-N-methylspiperone from human dopmaine D2L receptor expressed in CHO cell membrane assessed as inhibition constant by competition binding assay; assay type: cell membranes
# T2 sequence (P14416 whole entry): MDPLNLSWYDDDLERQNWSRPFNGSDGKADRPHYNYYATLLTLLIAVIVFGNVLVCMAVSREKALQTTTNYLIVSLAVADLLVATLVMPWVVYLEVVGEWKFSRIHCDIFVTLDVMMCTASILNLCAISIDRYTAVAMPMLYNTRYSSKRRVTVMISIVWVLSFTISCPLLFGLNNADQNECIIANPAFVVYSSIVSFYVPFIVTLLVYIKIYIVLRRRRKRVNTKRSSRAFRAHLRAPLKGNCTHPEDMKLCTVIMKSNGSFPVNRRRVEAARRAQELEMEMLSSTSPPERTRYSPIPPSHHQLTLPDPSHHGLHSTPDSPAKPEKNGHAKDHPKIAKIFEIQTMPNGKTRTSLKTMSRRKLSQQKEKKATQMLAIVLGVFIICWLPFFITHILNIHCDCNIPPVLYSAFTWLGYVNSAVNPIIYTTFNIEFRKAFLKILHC
# [4] = target: T2, D(2) dopamine receptor; test: Displacement of [3H]-N-methylspiperone from human dopmaine D2S receptor expressed in CHO cell membrane assessed as inhibition constant by competition binding assay; assay type: cell membranes
# [5] = target: D(1A) dopamine receptor (Homo sapiens, UniProt P21728); test: Displacement of [3H]SCH23390 from human dopamine D1 receptor expressed in HEK293T cells assessed as inhibition constant by competition binding assay; assay type: cell-based
# Chain of D(1A) dopamine receptor (P21728 whole entry): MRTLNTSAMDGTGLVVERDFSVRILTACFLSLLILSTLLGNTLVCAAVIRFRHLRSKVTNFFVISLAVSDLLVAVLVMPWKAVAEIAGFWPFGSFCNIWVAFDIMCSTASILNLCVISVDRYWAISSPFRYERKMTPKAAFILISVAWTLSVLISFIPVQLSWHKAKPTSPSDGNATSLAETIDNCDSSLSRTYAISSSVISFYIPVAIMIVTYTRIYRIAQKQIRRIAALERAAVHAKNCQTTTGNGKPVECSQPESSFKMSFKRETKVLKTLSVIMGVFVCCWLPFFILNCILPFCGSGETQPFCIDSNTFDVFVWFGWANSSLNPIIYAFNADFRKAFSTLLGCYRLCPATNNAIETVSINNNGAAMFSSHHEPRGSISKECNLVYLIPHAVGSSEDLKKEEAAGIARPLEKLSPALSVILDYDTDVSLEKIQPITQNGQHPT
# [6] = target: D(1B) dopamine receptor (Homo sapiens, UniProt P21918); test: Displacement of [3H]SCH23390 from human dopamine D5 receptor expressed in HEK293T cells assessed as inhibition constant by competition binding assay; assay type: cell-based
# Chain of D(1B) dopamine receptor (P21918 whole entry): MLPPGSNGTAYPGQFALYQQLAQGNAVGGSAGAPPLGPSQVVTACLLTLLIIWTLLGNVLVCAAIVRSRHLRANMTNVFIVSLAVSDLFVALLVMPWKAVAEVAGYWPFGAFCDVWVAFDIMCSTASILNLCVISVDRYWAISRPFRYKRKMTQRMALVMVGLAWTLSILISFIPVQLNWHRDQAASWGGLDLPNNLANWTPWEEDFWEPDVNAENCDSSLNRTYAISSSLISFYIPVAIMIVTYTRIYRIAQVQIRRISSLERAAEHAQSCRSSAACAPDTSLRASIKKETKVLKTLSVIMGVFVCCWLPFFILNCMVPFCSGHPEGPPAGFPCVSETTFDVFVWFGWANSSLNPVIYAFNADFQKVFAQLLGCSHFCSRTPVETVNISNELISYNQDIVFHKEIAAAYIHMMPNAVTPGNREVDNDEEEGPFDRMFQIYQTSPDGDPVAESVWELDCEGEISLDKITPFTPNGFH
# [7] = target: T3, Alpha-1A adrenergic receptor (Homo sapiens, UniProt P35348); test: Displacement of [3H]prazosin from adrenergic alpha 1A receptor (unknown origin) expressed in HEK293T cells assessed as inhibition constant by competition binding assay; assay type: cell-based
# T3 sequence (P35348 whole entry): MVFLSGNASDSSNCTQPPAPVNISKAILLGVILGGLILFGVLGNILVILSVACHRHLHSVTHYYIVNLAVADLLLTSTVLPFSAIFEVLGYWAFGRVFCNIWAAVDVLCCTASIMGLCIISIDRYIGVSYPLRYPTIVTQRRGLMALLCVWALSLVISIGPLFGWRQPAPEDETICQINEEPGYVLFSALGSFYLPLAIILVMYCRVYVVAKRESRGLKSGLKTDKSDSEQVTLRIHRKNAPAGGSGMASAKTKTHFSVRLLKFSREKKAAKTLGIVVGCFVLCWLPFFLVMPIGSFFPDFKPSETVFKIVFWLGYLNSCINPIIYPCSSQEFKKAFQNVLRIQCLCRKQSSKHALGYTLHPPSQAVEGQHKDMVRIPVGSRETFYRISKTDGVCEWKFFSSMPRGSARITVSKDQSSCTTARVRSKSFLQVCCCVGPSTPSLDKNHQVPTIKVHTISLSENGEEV
# [8] = target: T4, Alpha-2A adrenergic receptor (Homo sapiens, UniProt P08913); test: Displacement of [3H]RX821002 from adrenergic alpha 2A receptor (unknown origin) expressed in HEK293T cells assessed as inhibition constant by competition binding assay; assay type: cell-based
# T4 sequence (P08913 whole entry): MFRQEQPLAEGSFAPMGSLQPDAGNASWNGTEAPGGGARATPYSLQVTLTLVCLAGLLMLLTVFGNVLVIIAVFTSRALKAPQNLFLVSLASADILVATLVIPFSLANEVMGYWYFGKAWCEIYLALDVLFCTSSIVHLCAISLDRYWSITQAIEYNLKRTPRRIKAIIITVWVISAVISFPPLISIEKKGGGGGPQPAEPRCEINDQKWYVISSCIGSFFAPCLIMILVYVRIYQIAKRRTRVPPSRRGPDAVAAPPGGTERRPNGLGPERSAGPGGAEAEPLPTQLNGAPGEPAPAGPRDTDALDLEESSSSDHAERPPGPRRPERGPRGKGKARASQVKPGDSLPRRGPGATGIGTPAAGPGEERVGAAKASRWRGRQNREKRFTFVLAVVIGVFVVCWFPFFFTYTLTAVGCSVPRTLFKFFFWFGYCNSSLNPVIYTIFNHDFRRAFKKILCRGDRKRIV
# [9] = target: T5, 5-hydroxytryptamine receptor 1A (Homo sapiens, UniProt P08908); test: Displacement of [3H][…] from 5-HT1A receptor (unknown origin) expressed in HEK293T cells assessed as inhibition constant by competition binding assay; assay type: cell-based
# T5 sequence (P08908 whole entry): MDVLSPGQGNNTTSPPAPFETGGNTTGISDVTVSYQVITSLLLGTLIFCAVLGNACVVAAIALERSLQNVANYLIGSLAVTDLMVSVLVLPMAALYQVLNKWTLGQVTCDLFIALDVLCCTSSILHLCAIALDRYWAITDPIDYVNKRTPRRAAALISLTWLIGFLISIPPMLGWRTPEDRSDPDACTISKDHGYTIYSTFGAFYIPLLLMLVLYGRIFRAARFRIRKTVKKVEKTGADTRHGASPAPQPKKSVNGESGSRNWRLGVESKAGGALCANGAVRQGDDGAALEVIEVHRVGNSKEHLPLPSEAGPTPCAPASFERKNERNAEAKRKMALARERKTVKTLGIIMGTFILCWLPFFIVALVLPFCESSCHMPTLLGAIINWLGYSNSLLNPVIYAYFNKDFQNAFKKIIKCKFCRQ
# [10] = target: 5-hydroxytryptamine receptor 2A (Homo sapiens, UniProt P28223); test: Displacement of [3H]ketanserin from 5-HT2A receptor (unknown origin) expressed in HEK293T cells assessed as inhibition constant by competition binding assay; assay type: cell-based
# Chain of 5-hydroxytryptamine receptor 2A (P28223 whole entry): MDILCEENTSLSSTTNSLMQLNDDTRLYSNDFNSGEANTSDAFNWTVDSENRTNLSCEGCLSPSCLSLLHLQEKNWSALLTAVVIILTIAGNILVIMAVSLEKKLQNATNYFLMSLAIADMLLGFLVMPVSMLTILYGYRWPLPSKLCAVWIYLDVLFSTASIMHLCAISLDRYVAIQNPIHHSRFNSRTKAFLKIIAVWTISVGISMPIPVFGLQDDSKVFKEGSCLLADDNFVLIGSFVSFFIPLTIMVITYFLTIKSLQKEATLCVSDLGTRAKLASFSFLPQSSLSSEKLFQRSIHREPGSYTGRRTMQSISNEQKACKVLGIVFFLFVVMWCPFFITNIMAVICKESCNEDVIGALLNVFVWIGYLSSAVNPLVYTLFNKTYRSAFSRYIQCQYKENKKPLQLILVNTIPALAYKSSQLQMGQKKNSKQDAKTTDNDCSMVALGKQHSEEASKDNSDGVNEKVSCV
# [11] = Drug metabolism in pooled rat liver microsomes assessed as O-demethylation mediated metabolite formation at 40 uM measured upto 60 mins in the presence of NADPH by HPLC(UV) analysis; assay type: ADME, Microsome; details: 1 h
# [12] = Drug metabolism in pooled rat liver microsomes assessed as hydroxylation mediated metabolite formation at 40 uM measured upto 60 mins in the presence of NADPH by HPLC(UV) analysis; assay type: ADME, Microsome; details: 1 h
# [13] = Metabolic stability in pooled rat liver microsomes assessed as parent compound remaining at 40 uM measured after 60 mins in the presence of NADPH by HPLC(UV) analysis; assay type: ADME, Microsome; details: read-out: Stability
# [14] = Permeability of the compound across basal to apical membrane in human Caco-2 cells at 10 uM incubated for 4 hrs by HPLC(UV) analysis; assay type: ADME, cell-based; details: caco-2, 4 h
# [15] = Permeability of the compound across basal to apical membrane in human Caco-2 cells at 10 uM incubated for 4 hrs in the presence of valspodar by HPLC(UV) analysis; assay type: ADME, cell-based; details: caco-2, 4 h
# [16] = Retention time of the compound by HPLC(UV) method; assay type: physicochemical
# Chain of D(3) dopamine receptor (P35462 whole entry): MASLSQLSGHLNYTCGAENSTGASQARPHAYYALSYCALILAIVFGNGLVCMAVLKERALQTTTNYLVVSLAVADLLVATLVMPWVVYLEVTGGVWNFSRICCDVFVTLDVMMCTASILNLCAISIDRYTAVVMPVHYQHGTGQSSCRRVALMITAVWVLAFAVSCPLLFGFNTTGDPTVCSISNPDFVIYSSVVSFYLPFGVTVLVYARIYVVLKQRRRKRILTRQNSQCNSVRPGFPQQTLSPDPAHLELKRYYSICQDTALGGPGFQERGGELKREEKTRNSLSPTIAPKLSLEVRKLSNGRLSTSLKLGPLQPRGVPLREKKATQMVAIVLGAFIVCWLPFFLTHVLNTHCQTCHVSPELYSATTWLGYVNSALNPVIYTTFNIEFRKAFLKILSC
smiles,measurement,setting,value
COc1ccccc1N1CCN(CCCNC(=O)NCc2cccc(F)c2-c2ccccc2)CC1,Ki,[1],0.062 µM
same,Ki,[2],0.0011 µM
COc1ccccc1N1CCN(CCCNC(=O)Nc2ccc(-c3ccccc3)cc2)CC1,Ki,[3],0.34 µM
same,Ki,[4],0.13 µM
same,Ki,[1],0.022 µM
same,Ki,[2],0.11 µM
COc1cccc(-c2ccccc2CNC(=O)NCCCN2CCN(c3ccccc3OC)CC2)c1,Ki,[3],0.22 µM
same,Ki,[4],0.088 µM
same,Ki,[1],0.075 µM
same,Ki,[2],0.013 µM
COc1ccccc1N1CCN(CCCNC(=O)Nc2ccccc2-c2ccc(C(C)(C)C)cc2)CC1,Ki,[3],0.12 µM
same,Ki,[4],0.078 µM
same,Ki,[1],0.07 µM
same,Ki,[2],0.03 µM
COc1ccccc1N1CCN(CCCNC(=O)NCc2c(F)cccc2-c2ccccc2)CC1,Ki,[3],0.21 µM
same,Ki,[4],0.14 µM
same,Ki,[1],0.073 µM
COCCOCCOc1ccc(NC(=O)NCCCN2CCN(c3ccccc3OC)CC2)c(-c2ccccc2)c1,Ki,[3],0.13 µM
same,Ki,[4],0.074 µM
same,Ki,[1],0.086 µM
same,Ki,[5],0.022 µM
same,Ki,[6],3.9 µM
same,Ki,[7],0.038 µM
same,Ki,[8],0.41 µM
same,Ki,[9],0.22 µM
same,Ki,[10],1.5 µM
COc1ccccc1N1CCN(CCCNC(=O)NCc2ccccc2-c2ccccc2)CC1,Ki,[3],0.19 µM
same,Ki,[4],0.12 µM
same,Ki,[1],0.27 µM
same,Ki,[5],0.48 µM
same,Ki,[6],3.3 µM
same,Ki,[7],0.011 µM
same,Ki,[8],0.12 µM
same,Ki,[9],0.062 µM
same,Ki,[10],0.14 µM
same,Drug metabolism,[11],Metabolite_Detected
same,Drug metabolism,[12],Metabolite_Detected
same,"remaining at 1 h, 40 µM",[13],56%
same,permeability,[14],15.7%
same,permeability,[15],10.5%
same,Retention_time,[16],4.09 min
COc1ccccc1N1CCN(CCCNC(=O)NCc2ccccc2-c2ccc(C)cc2)CC1,Ki,[3],0.11 µM
same,Ki,[4],0.062 µM
same,Ki,[1],0.089 µM
same,Ki,[2],0.0042 µM
COc1ccccc1N1CCN(CCCNC(=O)Nc2cccc(-c3ccccc3)c2)CC1,Ki,[3],0.046 µM
same,Ki,[4],0.018 µM
same,Ki,[1],0.026 µM
same,Ki,[2],0.0072 µM
COc1ccccc1N1CCN(CCCNC(=O)NCc2cc(F)ccc2-c2ccccc2)CC1,Ki,[3],0.088 µM
same,Ki,[4],0.038 µM
same,Ki,[1],0.15 µM
same,Ki,[2],0.0046 µM
COc1ccccc1N1CCN(CCCNC(=O)Nc2ccccc2-c2cccc(F)c2)CC1,Ki,[3],0.17 µM
same,Ki,[4],0.11 µM
same,Ki,[1],0.023 µM
same,Ki,[2],0.004 µM
COc1ccccc1N1CCN(CCCNC(=O)NCc2ccc(F)cc2-c2ccccc2)CC1,Ki,[3],0.073 µM
same,Ki,[4],0.04 µM
same,Ki,[1],0.099 µM
same,Ki,[2],0.0027 µM
COc1ccc(CNC(=O)NCCCN2CCN(c3ccccc3OC)CC2)c(-c2ccccc2)c1,Ki,[3],0.16 µM
same,Ki,[4],0.037 µM
same,Ki,[1],0.092 µM
same,Ki,[2],0.0031 µM
